Results: patent publication EP0185623A1, “Milbemycin derivatives for combating insects and parasites” (CIBA-GEIGY AG, priority 1984, dated 1986)

Legend:
[1] = tested on: L1-Larven von Lucilia sericata; assay: B-3 action against L1 larvae in larval culture medium; format: in vivo; conditions: 100 ppm, after 4 days
Procedure: B-3. Wirkung gegen L1-Larven von Lucilia sericata
1 ml einer wässrigen Suspension der zu prüfenden Aktivsubstanz wird so mit 3 ml eines speziellen Larvenzuchtmediums bei ca. 50°C vermischt, dass ein Homogenisat von wahlweise 250 ppm oder 125 ppm Wirkstoffgehalt entsteht. In jede Reagenzglas-Probe werden ca. 30 Lucilia-Larven (L1) eingesetzt. Nach 4 Tagen wird die Mortalitätsrate bestimmt. Die Verbindungen der Formel 1 erzielten mit 250 ppm, die Verbindungen Nr. 1.1, 1.3, 1.15, 1.22, 1.27, 1.35, 1.37, 1.38 und 1.43 bereits bei 100 ppm eine Wirkung von 100 %.

[2] = tested on: Boophilus microplus (Biarra-Stamm); assay: B-4 acaricidal action, injection into engorged female ticks; format: in vivo; conditions: dose per tick at which 9 of 10 females lay non-hatching eggs after 30 days
Procedure: B-4. Akarizide Wirkung gegen Boophilus microplus (Biarra-Stamm
Auf einer PVC-Platte wird waagrecht ein Klebstreifen so befestigt, das darauf 10 mit Blut vollgesogene Zecken-Weibchen von Boophilus microplus (Biarra-Stamm) nebeneinander in einer Reihe mit dem Rücken aufgeklebt werden können. Jeder Zecke wird mit einer Injektionsnadel 1 µl einer Flüssigkeit injiziert, die eine 1:1-Mischung von Polyethylenglykol und Aceton darstellt und in der als bestimmte Wirkstoffmenge […] pro Zecke gelöst ist. Kontrolltiere erhalten eine wirkstofffreie Injektion. Nach der Behandlung werden die Tiere unter Normalbedingungen in einem Insektarium bei ca. 28°C und 80 % relativer Luftfeuchtigkeit gehalten, bis die Eiablage erfolgt und die Larven aus den Eiern der Kontrolltiere geschlüpft sind.
Die Aktivität einer geprüften Substanz wird mit der IR90 bestimmt, d.h. es wird jene Wirkstoffdosis ermittelt, bei der noch nach 30 Tagen 9 von 10 Zeckenweibchen (= 90 %) Eier ablegen, die nicht schlupffähig sind.

[3] = tested on: Haemonchus contortus und Trychostrongylus colubriformis; assay: B-5 test on sheep infected with nematodes, worm egg count in faeces; format: in vivo, Schafe; conditions: single dose
Procedure: B-5. Versuch an mit Nematoden (Haemonchus concortus und Trichostrongylus colubriformis) infizierten Schafen
Der Wirkstoff wird als Suspension formuliert mit einer Magensonde oder durch Injektion in den Pansen eines Schafes gegeben, das mit Haemonchus contortus und Trychostrongylus colubriformis künstlich infiziert worden ist. Pro Dosis werden 1 bis 3 Tiere verwendet. Jedes Schaf wird nur einmal mit einer einzigen Dosis behandelt, und zwar wahlweise mit 2 mg oder 1 mg/kg Körpergewicht. Die Evaluierung erfolgt durch Vergleich der Anzahl der vor und nach Behandlung im Kot der Schafe ausgeschiedenen Wurmeier.
Gleichzeitig und gleichartig infizierte aber unbehandelte Schafe dienen als Kontrolle. Schafe, die mit einer der Verbindungen der Formel I bei 1 mg/kg behandelt wurden, zeigten im Vergleich zu unbehandelten, aber infizierten Vergleichsgruppen keinen Nematodenbefall (= komplette Reduktion der Wurmeier im Kot). […] Schafe, die mit 0,1 mg/kg Köpergewicht der Verbindung Nr. 1.1 (A) und der Verbindung Nr. 1.15 (B) behandelt wurden, zeigten im Vergleich zur Kontrolle eine 77%ige (A) und eine 97Xige (B) Wirkung, während 5-0-(2,3,4,6-Tetra-0-acetyl-1-0-glucanopyranosyl)-milbemycin A3 bei dieser Konzentration unwirksam war.

Substance	Wirkung (Mortalitätsrate) [1]	IR90 [2]	Wirkung im Vergleich zur Kontrolle ([3]; 0,1 mg/kg Körpergewicht)	Wirkung (Reduktion der Wurmeier im Kot) ([3]; 2 mg/kg)
5-0-(1-0-Galactopyranosyl)-milbemycin D [1.38]	100%	0,5 µg		
5-0-(2,3,4,6-Tetra-0-acetyl-1-0-glucanopyranosyl)-milbemycin A3 [Tetraacetylglucopyranosyl-milbemycin A3]			unwirksam	annähernd wirkungslos
